We go through 65 compounds from article PMC5733478, “A Non-imaging High Throughput Approach to Chemical Library Screening at the Unmodified Adenosine-A3 Receptor in Living Cells” (Frontiers in Pharmacology, 2017).

Where a name gives a salt, the structure may show the parent alone. Read-outs that look alike come from different tables or passages of the source.

The target in this test is T1, human A3AR (Homo sapiens, UniProt P0DMS8).
T1 construct: expressed in transfected cells
T1 sequence (P0DMS8 1-318): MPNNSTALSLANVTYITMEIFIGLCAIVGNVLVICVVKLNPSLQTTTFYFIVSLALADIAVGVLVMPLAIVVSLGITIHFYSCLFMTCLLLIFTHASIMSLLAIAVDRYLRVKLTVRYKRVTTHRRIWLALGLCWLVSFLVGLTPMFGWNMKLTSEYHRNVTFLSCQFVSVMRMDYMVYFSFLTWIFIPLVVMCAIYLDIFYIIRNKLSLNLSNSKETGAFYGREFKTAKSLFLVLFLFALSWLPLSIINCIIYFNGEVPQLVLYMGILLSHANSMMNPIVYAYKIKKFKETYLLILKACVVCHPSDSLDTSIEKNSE
Nature of the test: LOPAC library primary screen: single concentration (10 μM) inhibition of 25 nM CA200645 binding, PHERAstar FS.

Setting [1] is: % of control wells (1% DMSO and 25 nM CA200645), compounds at 10 µM, whole live cells expressing the A3AR, mean ± SD, three experiments in duplicate.

As to `C[N+](C)(C)CC=O` [Betaine aldehyde chloride], the “% 25 nM CA200645 binding” value is on record as 95.0 ± 5.8%.

Turning to `Nc1ncnc2c1c(-c1ccc(Oc3ccccc3)cc1)cn2C1CCCC1`, the “% 25 nM CA200645 binding” value is given as 58.8 ± 13.2%.

Take `NCCCP(=O)(O)O` [3-Aminopropylphosphonic acid]: the “% 25 nM CA200645 binding” value was found to be 90.0 ± 2.1%.

Regarding `CC(N)C(O)c1ccc(O)c(O)c1` (single isomer, unassigned; (-)) [(-)-alpha-Methylnorepinephrine], the “% 25 nM CA200645 binding” value is 100.4 ± 6.1%.

`CN[C@H]1CC[C@@H](c2ccc(Cl)c(Cl)c2)c2ccccc21` [Sertraline hydrochloride]: the “% 25 nM CA200645 binding” value was found to be 101.1 ± 11.7%.

Consider `N[C@@H]1[C@H]2CN(c3nc4c(cc3F)c(=O)c(C(=O)O)cn4-c3ccc(F)cc3F)C[C@@H]12` [Trovafloxacin mesylate], for which the “% 25 nM CA200645 binding” value turned out to be 94.4 ± 17.2%.

With `Nc1nc2c(ncn2CCOCP(=O)(O)O)c(=O)[nH]1` [PMEG hydrate], the “% 25 nM CA200645 binding” value is on record as 97.6 ± 14.8%.

Take `CN1CCN2c3ccccc3Cc3ccccc3C2C1` (stereo not drawn) [Mianserin hydrochloride]: the “% 25 nM CA200645 binding” value amounted to 92.0 ± 7.7%.

In the case of `Cc1ccc(N(CC2=NCCN2)c2cccc(O)c2)cc1` [Phentolamine mesylate], the “% 25 nM CA200645 binding” value was 98.9 ± 10.7%.

For the compound `O=C(O)[C@H]1CCCN[C@H]1C(=O)O` (racemic) [(±)-cis-Piperidine-2,3-dicarboxylic acid], the “% 25 nM CA200645 binding” value is on record as 99.4 ± 1.9%.

On to `CC#CCOC(=O)c1c(C)nc2sc3c(c2c1N)CCC(O)C3` (stereo not drawn) [SB 205384], for which the “% 25 nM CA200645 binding” value turned out to be 95.1 ± 6.2%.

With `C[C@@H]1O[C@@H]1P(=O)(O)O` [Phosphomycin disodium], the “% 25 nM CA200645 binding” value came to 98.9 ± 12.7%.

Regarding `O=C(O)c1cc2cc(F)ccc2[nH]1` [5-Fluoroindole-2-carboxylic acid], the “% 25 nM CA200645 binding” value was found to be 92.5 ± 8.9%.

As for `CC#C[C@]1(O)CC[C@H]2[C@@H]3CCC4=CC(=O)CCC4=C3[C@@H](c3ccc(N(C)C)cc3)C[C@@]21C` [Mifepristone], the “% 25 nM CA200645 binding” value came to 83.5 ± 5.2%.

For `CC(C)(C)c1onc(OCP(=O)(O)O)c1CC(N)C(=O)O` (stereo not drawn) [ATPO], the “% 25 nM CA200645 binding” value is 98.4 ± 3.3%.

Consider `CN(C)CCC=C1c2ccccc2COc2ccccc21` [Doxepin hydrochloride], for which the “% 25 nM CA200645 binding” value is 110.0 ± 13.2%.

As for `CC(C)(Sc1ccc(CCN(CCCCC2CCCCC2)C(=O)NC2CCCCC2)cc1)C(=O)O` [GW7647], the “% 25 nM CA200645 binding” value stood at 55.8 ± 12.2%.

In the case of `CC(=O)NBr` [N-Bromoacetamide], the “% 25 nM CA200645 binding” value was 97.9 ± 5.0%.

Consider `Cn1ccnc1` [1-Methylimidazole], for which the “% 25 nM CA200645 binding” value turned out to be 115.7 ± 16.4%.

In the case of 10058-F4, the “% 25 nM CA200645 binding” value turned out to be 75.9 ± 8.5%.

As to `COC(=O)[C@H](NC(=O)c1cc(-c2ccccc2)nc2ccccc12)c1ccccc1` [SB 218795], the “% 25 nM CA200645 binding” value was determined as 51.1 ± 8.4%.

Regarding `O=C1C=CC(=O)C=C1` [p-Benzoquinone], the “% 25 nM CA200645 binding” value was 85.9 ± 13.7%.

Consider `NCCCNCCSP(=O)(O)O` [Amifostine], for which the “% 25 nM CA200645 binding” value was determined as 94.6 ± 2.0%.

In the case of `CC1=C(/C=C/C(C)=C/C=C/C(C)=C/C(=O)O)C(C)(C)CCC1` [Retinoic acid], the “% 25 nM CA200645 binding” value is on record as 93.6 ± 14.4%.

Consider `Nc1ncn([C@@H]2O[C@H](CO)[C@@H](O)[C@H]2O)c(=O)n1` [5-azacytidine], for which the “% 25 nM CA200645 binding” value is on record as 92.0 ± 10.7%.

Consider `CC(=O)SCC[N+](C)(C)C.[Cl-]` [Acetylthiocholine chloride], for which the “% 25 nM CA200645 binding” value turned out to be 95.7 ± 4.8%.

`NC(=O)C1=CN([C@@H]2O[C@H](COP(=O)([O-])OP(=O)([O-])OC[C@H]3O[C@@H](n4cnc5c(N)ncnc54)[C@H](OP(=O)([O-])[O-])[C@@H]3O)[C@@H](O)[C@H]2O)C=CC1.[Na+].[Na+].[Na+].[Na+]` [NADPH tetrasodium]: the “% 25 nM CA200645 binding” value is reported as 112.0 ± 13.1%.

`O=C1NC(=O)/C(=C/c2ccc(-c3ccc(F)cc3O)o2)S1` [AS-252424]: the “% 25 nM CA200645 binding” value was determined as 45.8 ± 20.9%.

With `O=C(c1ccc(OCCN2CCCCC2)cc1)c1c(-c2ccc(O)cc2)sc2cc(O)ccc12` [Raloxifene hydrochloride], the “% 25 nM CA200645 binding” value is 90.8 ± 14.0%.

For the compound `NC(CCP(=O)(O)O)C(=O)O` (racemic) [(±)-2-Amino-4-phosphonobutyric acid], the “% 25 nM CA200645 binding” value was determined as 99.9 ± 8.9%.

In the case of `COc1ccc(CCn2nnnc2C2(c3ccc(C)cc3)CC2)cc1` [Mephetyl tetrazole], the “% 25 nM CA200645 binding” value is 66.4 ± 18.5%.

On to `Nc1ccc(-c2ccc3ccccc3n2)cc1` [BF-170 hydrochloride], for which the “% 25 nM CA200645 binding” value came to 78.6 ± 20.5%.

As to `O=C(O)CCCCCCCC(=O)O` [Azelaic acid], the “% 25 nM CA200645 binding” value was determined as 91.8 ± 5.2%.

Turning to `COc1ccc(C(=O)NCc2cccnc2)cc1C(=O)NCc1cccnc1` [Picotamide], the “% 25 nM CA200645 binding” value is on record as 109.0 ± 15.4%.

For the compound `N#CC(C#N)=C(N)/C(C#N)=C/c1ccc(O)cc1` [Tyrphostin AG 112], the “% 25 nM CA200645 binding” value worked out at 102.8 ± 4.7%.

On to `Nc1nc(N)c(N=O)c(OCC2CCCCC2)n1` [NU6027], for which the “% 25 nM CA200645 binding” value amounted to 80.6 ± 9.9%.

`CCCNC(=O)NS(=O)(=O)c1ccc(Cl)cc1` [Chlorpropamide]: the “% 25 nM CA200645 binding” value came out at 97.6 ± 7.8%.

As for `Nc1ncnc2c1nc(Sc1ccc(Cl)cc1)n2C1OC2COP(=O)(O)OC2C1O` (stereo in doubt) [8-(4-Chlorophenylthio)-cAMP sodium], the “% 25 nM CA200645 binding” value was 91.8 ± 2.6%.

With `NC(=O)COc1c(F)cc(SCCNS(=O)(=O)c2ccccc2)cc1F`, the “% 25 nM CA200645 binding” value was determined as 109.8 ± 13.1%.

As for `Cl.NC1(C(=O)O)CCCCC1`, the “% 25 nM CA200645 binding” value came to 108.3 ± 1.1%.

With `Nc1nc2c(cnn2CCc2ccccc2)c2nc(-c3ccco3)nn12` [SCH 58261, reference compound], the “% 25 nM CA200645 binding” value is on record as 52.5 ± 9.7% and the “% Total CA200645 binding” value is on record as 52.2 ± 5.4%.

On to `CN(C)c1ccc(O)c2c1C[C@H]1C[C@H]3[C@H](N(C)C)C(O)=C(C(N)=O)C(=O)[C@@]3(O)C(O)=C1C2=O` [Minocycline hydrochloride], for which the “% 25 nM CA200645 binding” value is 101.7 ± 17.9%.

Turning to `O=c1ccn([C@@H]2O[C@H](COP(=O)([O-])OP(=O)([O-])O)[C@@H](O)[C@H]2O)c(=O)[nH]1.[Na+].[Na+]` [Uridine 5'-diphosphate sodium], the “% 25 nM CA200645 binding” value is given as 100.6 ± 5.7%.

With `CC(=O)c1ccc(S(=O)(=O)NC(=O)NC2CCCCC2)cc1` [Acetohexamide], the “% 25 nM CA200645 binding” value was 101.4 ± 13.1%.

In the case of `CCN(CC)CCCCNc1ncc2cc(-c3c(Cl)cccc3Cl)c(NC(=O)NC(C)(C)C)nc2n1` [PD-161570], the “% 25 nM CA200645 binding” value stood at 90.7 ± 9.1%.

Consider `CN(C)C/C=C(/c1ccc(Br)cc1)c1cccnc1` [Zimelidine dihydrochloride], for which the “% 25 nM CA200645 binding” value is given as 92.5 ± 9.4%.

Consider `Cc1nc2sccn2c(=O)c1CCN1CCC(=C(c2ccc(F)cc2)c2ccc(F)cc2)CC1` [Ritanserin], for which the “% 25 nM CA200645 binding” value under setting [1] came to 79.4 ± 12.5%.

For `Nc1nc(SCc2ccc([N+](=O)[O-])cc2)c2ncn([C@@H]3O[C@H](CO)[C@@H](O)[C@H]3O)c2n1` [S-(4-Nitrobenzyl)-6-thioguanosine], the “% 25 nM CA200645 binding” value amounted to 91.9 ± 3.2%.

Consider `CC1=C(/C=C/C(C)=C/C=C/C(C)=C/C=C/C=C(C)/C=C/C=C(C)/C=C/C2=C(C)C(=O)[C@@H](O)CC2(C)C)C(C)(C)C[C@H](O)C1=O` [Astaxanthin], for which the “% 25 nM CA200645 binding” value stood at 96.8 ± 4.6%.

With `Clc1nccc2c1ccc1ccccc12` [CBIQ], the “% 25 nM CA200645 binding” value was 87.1 ± 7.0%.

Take `O.O.O=C(Nc1ccc2c(c1)CCN(Cc1ncn[nH]1)C2)c1ccccc1-c1ccc(C(F)(F)F)cc1` [CP-346086 dihydrate]: the “% 25 nM CA200645 binding” value was found to be 98.2 ± 12.5%.

As to `Clc1cnc(Oc2ccc(Oc3ncc(Cl)cc3Cl)cc2)c(Cl)c1` [TCPOBOP], the “% 25 nM CA200645 binding” value was 93.7 ± 8.4%.

As for `CC(C)(C)NCC(O)c1ccc(O)c(CO)c1.CC(C)(C)NCC(O)c1ccc(O)c(CO)c1.O=S(=O)(O)O` (stereo not drawn) [Albuterol hemisulfate], the “% 25 nM CA200645 binding” value came out at 97.4 ± 12.0%.

For the compound `COc1cc2nc(N3CCN(C(=O)c4ccco4)CC3)nc(N)c2cc1OC` [Prazosin hydrochloride], the “% 25 nM CA200645 binding” value is 109.3 ± 23.7%.

Take `N[C@@H](CC(=O)O)C(=O)O` [L-Aspartic acid]: the “% 25 nM CA200645 binding” value was determined as 99.3 ± 3.7%.

Turning to `CCC1(C)CC(=O)NC1=O` (stereo not drawn) [Ethosuximide], the “% 25 nM CA200645 binding” value is recorded as 88.4 ± 5.5%.

For the compound `O=C(O)c1nn(Cc2ccc(Cl)cc2Cl)c2ccccc12` [Lonidamine], the “% 25 nM CA200645 binding” value is 94.6 ± 7.2%.

On to `Nn1nnc2ccccc21` [1-Aminobenzotriazole], for which the “% 25 nM CA200645 binding” value was found to be 83.5 ± 18.8%.

With `Br.Br.N=C(N)SCCN`, the “% 25 nM CA200645 binding” value stood at 91.5 ± 12.4%.

Turning to `CCCc1c(-c2ccc(O)cc2)nn(-c2ccc(O)cc2)c1-c1ccc(O)cc1`, the “% 25 nM CA200645 binding” value is given as 35.7 ± 9.6%.

`COc1ccc(/C=C/C(=O)Nc2ccccc2C(=O)O)cc1OC` [Tranilast]: the “% 25 nM CA200645 binding” value was found to be 95.7 ± 1.4%.

As for `Br.CCCN(CCC)C1CCc2ccc(O)cc2C1` (racemic) [(±)-7-Hydroxy-DPAT hydrobromide], the “% 25 nM CA200645 binding” value was 98.0 ± 1.6%.

In the case of `Clc1ccc2c(c1)N=C(N1CCNCC1)c1ccccc1N2` [N-Desmethylclozapine], under setting [1], the “% 25 nM CA200645 binding” value amounted to 98.4 ± 14.7%.

In the case of `C=CCn1c(=O)c2c(nc(-c3ccc(S(=O)(=O)O)cc3)n2C)n(C)c1=O`, the “% 25 nM CA200645 binding” value is given as 97.5 ± 9.3%.

Turning to `CC[n+]1c(/C=C/C=C2/N(C)c3ccccc3C2(C)C)sc2ccccc21.[I-]` [AC-93253 iodide], the “% 25 nM CA200645 binding” value was determined as 89.8 ± 11.3%.
